Consider 28 molecules from patent publication US10227357B2, “Compounds and methods for kinase modulation, and indications therefor” (Plexxikon Inc., priority 2012, dated 2019).

The target in one assay is T1, c-kit mutant D816V (Homo sapiens, UniProt P10721, D816V/DEL694-753).
T1 construct: residues 551-934, kinase insertion domain residues 694-753 deleted; 6x-histidine (N); made in house; host or cells: E. coli Arctic Express (DE3) RIL (Stratagene)
The assay can be described thus: c-Kit mutant D816V biochemical assay, AlphaScreen. Conditions: c-kit D816V biochemical inhibitory activity; read-out: Biochemical activity (IC50 μM) Kit D816V. In a few lines:
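Purified His-tagged c-Kit D816V (E. coli-expressed) assayed in 25 mM HEPES pH 7.2 with Mg/Mn, 5% DMSO and 10 μM ATP, 30 min at room temperature, 8-point 1:3 dilutions. Phosphorylation detected by AlphaScreen with streptavidin donor and PY20 acceptor beads; IC50 from signal versus concentration.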
A general note: Bead proximity is the source of the signal in Alpha formats.

For another assay, the target named is T2, c-kit kinase (Homo sapiens, UniProt P10721).
T2 construct: The c-kit (or kinase domain thereof) is an active kinase in AlphaScreen; poly-Histidine tag (in-house protein only) (cleaved yes); host or cells: E. coli BL21(DE3)RIL, co-expressed with PTP1B
T2 sequence (P10721 26-976): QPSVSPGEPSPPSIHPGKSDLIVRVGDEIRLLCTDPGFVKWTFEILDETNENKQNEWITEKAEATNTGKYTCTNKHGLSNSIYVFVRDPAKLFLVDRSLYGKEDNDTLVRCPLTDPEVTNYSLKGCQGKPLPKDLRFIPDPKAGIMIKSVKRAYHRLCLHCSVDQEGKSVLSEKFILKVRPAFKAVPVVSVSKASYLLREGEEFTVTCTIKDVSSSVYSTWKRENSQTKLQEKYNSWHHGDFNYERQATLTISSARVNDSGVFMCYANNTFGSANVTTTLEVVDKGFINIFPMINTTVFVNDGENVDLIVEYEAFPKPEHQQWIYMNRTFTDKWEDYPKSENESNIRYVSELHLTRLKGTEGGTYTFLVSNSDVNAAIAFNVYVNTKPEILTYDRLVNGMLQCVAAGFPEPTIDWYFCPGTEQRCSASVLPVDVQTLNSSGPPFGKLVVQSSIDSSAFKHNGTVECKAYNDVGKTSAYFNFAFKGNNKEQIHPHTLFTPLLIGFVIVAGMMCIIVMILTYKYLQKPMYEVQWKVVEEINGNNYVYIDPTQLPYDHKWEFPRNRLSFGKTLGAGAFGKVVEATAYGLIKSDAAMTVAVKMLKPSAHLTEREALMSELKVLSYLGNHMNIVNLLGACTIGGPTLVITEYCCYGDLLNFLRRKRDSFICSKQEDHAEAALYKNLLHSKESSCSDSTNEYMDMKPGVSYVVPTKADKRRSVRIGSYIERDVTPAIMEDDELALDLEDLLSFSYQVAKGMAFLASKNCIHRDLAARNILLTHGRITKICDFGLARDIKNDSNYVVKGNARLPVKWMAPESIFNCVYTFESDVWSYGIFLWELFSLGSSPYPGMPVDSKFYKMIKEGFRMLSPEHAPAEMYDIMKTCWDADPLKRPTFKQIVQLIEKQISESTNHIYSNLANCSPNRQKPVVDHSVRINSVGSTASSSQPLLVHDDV
The assay can be described thus: c-Kit biochemical assay, AlphaScreen, 10 μM ATP. Conditions: c-kit biochemical inhibitory activity; read-out: Biochemical activity (IC50 μM) Kit. The procedure, abridged:
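His-tagged c-Kit expressed in E. coli with co-expressed PTP1B (dephosphorylated), tag removed; 0.1 ng per reaction with biotinylated-peptide substrate in 50 mM HEPES pH 7.2, 5 mM MgCl2, 5 mM MnCl2, 5% DMSO, 10 μM ATP, 1 h at room temperature. Phosphorylation detected by AlphaScreen (streptavidin donor, PY20 acceptor beads); IC50 from 8-point 1:3 dilution series.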

As usually defined, the IC50 is the point on the concentration scale where inhibition reaches its midpoint.

T1 sequence (P10721 with tags, fused parts or gaps DEL694-753/D816V): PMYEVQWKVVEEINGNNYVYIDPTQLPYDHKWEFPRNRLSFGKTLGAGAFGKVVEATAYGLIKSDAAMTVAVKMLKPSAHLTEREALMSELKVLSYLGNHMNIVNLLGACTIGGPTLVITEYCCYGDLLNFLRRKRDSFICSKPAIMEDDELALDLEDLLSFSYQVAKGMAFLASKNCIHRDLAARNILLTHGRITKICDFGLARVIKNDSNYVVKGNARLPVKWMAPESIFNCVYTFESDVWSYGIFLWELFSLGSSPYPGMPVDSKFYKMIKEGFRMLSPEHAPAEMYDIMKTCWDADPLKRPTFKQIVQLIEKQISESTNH

`Cc1cc2c(-c3ccc(NS(=O)(=O)c4cc(F)cc(F)c4)cc3F)ncnc2[nH]1` [P-0342, 3,5-difluoro-N-[3-fluoro-4-(6-methyl-7H-pyrrolo[2,3-d]pyrimidin-4-yl)phenyl]benzenesulfonamide]: the IC50 at c-kit mutant D816V and at c-kit kinase was 10 to 200 µM throughout.

Turning to `Cc1cc2c(-c3ccc(S(=O)(=O)Nc4ccc(F)cc4)c(F)c3)ncnc2[nH]1` [P-0343, 2-fluoro-N-(4-fluorophenyl)-4-(6-methyl-7H-pyrrolo[2,3-d]pyrimidin-4-yl)benzenesulfonamide], the figures for the IC50 at c-kit mutant D816V and on c-kit kinase were 1 to 10 µM and 10 to 200 µM, respectively.

Regarding `Cc1cc2c(-c3ccc(NS(=O)(=O)c4ccc(Cl)cc4)c(F)c3)ncnc2[nH]1` [P-0344, 4-chloro-N-[2-fluoro-4-(6-methyl-7H-pyrrolo[2,3-d]pyrimidin-4-yl)phenyl]benzenesulfonamide], the IC50 at c-kit mutant D816V and on c-kit kinase was 1 to 10 µM in each case.

`Cc1cc2c(-c3ccc(NS(=O)(=O)c4cccc(Cl)c4)c(F)c3)ncnc2[nH]1` [P-0345, 3-chloro-N-[2-fluoro-4-(6-methyl-7H-pyrrolo[2,3-d]pyrimidin-4-yl)phenyl]benzenesulfonamide]: the IC50 on c-kit mutant D816V and at c-kit kinase was 1 to 10 µM throughout.

With `Cc1cc2c(-c3ccc(NS(=O)(=O)c4ccc(F)cc4)c(F)c3)ncnc2[nH]1` [P-0346, 4-fluoro-N-[2-fluoro-4-(6-methyl-7H-pyrrolo[2,3-d]pyrimidin-4-yl)phenyl]benzenesulfonamide], the IC50 on c-kit mutant D816V and on c-kit kinase was 1 to 10 µM each time.

Turning to `Cc1cc2c(-c3ccc(NS(=O)(=O)c4cccc(F)c4)c(F)c3)ncnc2[nH]1` [P-0347, 3-fluoro-N-[2-fluoro-4-(6-methyl-7H-pyrrolo[2,3-d]pyrimidin-4-yl)phenyl]benzenesulfonamide], the IC50 on c-kit mutant D816V and at c-kit kinase was 1 to 10 µM throughout.

Turning to `Cc1cc2c(-c3ccc(NS(=O)(=O)c4ccc(Cl)cc4)cc3F)ncnc2[nH]1` [P-0349, 4-chloro-N-[3-fluoro-4-(6-methyl-7H-pyrrolo[2,3-d]pyrimidin-4-yl)phenyl]benzenesulfonamide], the IC50 on c-kit mutant D816V and at c-kit kinase was 1 to 10 µM each time.

As for `Cc1cc2c(-c3ccc(NS(=O)(=O)c4ccc(C)c(F)c4)c(F)c3)ncnc2[nH]1` [P-0350, 3-fluoro-N-[2-fluoro-4-(6-methyl-7H-pyrrolo[2,3-d]pyrimidin-4-yl)phenyl]-4-methyl-benzenesulfonamide], the half-maximal inhibitory concentration (IC50) at c-kit mutant D816V and on c-kit kinase was 1 to 10 µM throughout.

As to `Cc1cc2c(-c3ccc(NS(=O)(=O)c4cccc(Cl)c4F)c(F)c3)ncnc2[nH]1` [P-0351, 3-chloro-2-fluoro-N-[2-fluoro-4-(6-methyl-7H-pyrrolo[2,3-d]pyrimidin-4-yl)phenyl]benzenesulfonamide], the IC50 at c-kit mutant D816V lay within 10 to 200 µM; on c-kit kinase it was 1 to 10 µM.

Consider `Cc1cc2c(-c3ccc(NS(=O)(=O)c4ccc(Cl)cc4F)cc3F)ncnc2[nH]1` [P-0352, 4-chloro-2-fluoro-N-[3-fluoro-4-(6-methyl-7H-pyrrolo[2,3-d]pyrimidin-4-yl)phenyl]benzenesulfonamide], for which the IC50 at c-kit mutant D816V is 1 to 10 µM; on c-kit kinase, 0.0001 to 1 µM.

For `CS(=O)(=O)Nc1ccc(-c2ncnc3[nH]c(-c4ccc(F)cc4)cc23)c(F)c1F` [P-0353, N-[2,3-difluoro-4-[6-(4-fluorophenyl)-7H-pyrrolo[2,3-d]pyrimidin-4-yl]phenyl]methanesulfonamide], the IC50 on c-kit mutant D816V fell in the range of 0.0001 to 1 µM; on c-kit kinase, 1 to 10 µM.

`O=S(=O)(NCc1ccc(F)cc1)c1ccc(-c2ncnc3[nH]c(-c4ccc(F)cc4)cc23)c(F)c1` [P-0354, 3-fluoro-N-[(4-fluorophenyl)methyl]-4-[6-(4-fluorophenyl)-7H-pyrrolo[2,3-d]pyrimidin-4-yl]benzenesulfonamide]: the figures for the IC50 on c-kit mutant D816V and at c-kit kinase were 0.0001 to 1 µM and 10 to 200 µM, respectively.

Turning to `Cc1cc2c(-c3ccc(NS(=O)(=O)c4cccc(Cl)c4)cc3F)ncnc2[nH]1` [P-0357, 3-chloro-N-[3-fluoro-4-(6-methyl-7H-pyrrolo[2,3-d]pyrimidin-4-yl)phenyl]benzenesulfonamide], the IC50 on c-kit mutant D816V and at c-kit kinase was 1 to 10 µM in each case.

On to `Cc1cc2c(-c3ccc(NS(=O)(=O)c4cccc(F)c4)cc3F)ncnc2[nH]1` [P-0358, 3-fluoro-N-[3-fluoro-4-(6-methyl-7H-pyrrolo[2,3-d]pyrimidin-4-yl)phenyl]benzenesulfonamide], for which the IC50 at c-kit mutant D816V and at c-kit kinase was 1 to 10 µM each time.

As for `Cc1cc2c(-c3ccc(NS(=O)(=O)c4ccc(OC(F)F)cc4)c(F)c3)ncnc2[nH]1` [P-0360, 4-(difluoromethoxy)-N-[2-fluoro-4-(6-methyl-7H-pyrrolo[2,3-d]pyrimidin-4-yl)phenyl]benzenesulfonamide], the IC50 on c-kit mutant D816V lay in the range of 10 to 200 µM; on c-kit kinase, 1 to 10 µM.

For `Cc1cc2c(-c3ccc(NS(=O)(=O)c4ccc(Cl)cc4F)c(F)c3)ncnc2[nH]1` [P-0361, 4-chloro-2-fluoro-N-[2-fluoro-4-(6-methyl-7H-pyrrolo[2,3-d]pyrimidin-4-yl)phenyl]benzenesulfonamide], the results for the IC50 on c-kit mutant D816V and on c-kit kinase were 1 to 10 µM and 0.0001 to 1 µM, respectively.

As for `Cc1cc2c(-c3ccc(NS(=O)(=O)c4ccc(F)cc4)cc3F)ncnc2[nH]1` [P-0362, 4-fluoro-N-[3-fluoro-4-(6-methyl-7H-pyrrolo[2,3-d]pyrimidin-4-yl)phenyl]benzenesulfonamide], the IC50 at c-kit mutant D816V lay within 0.0001 to 1 µM; on c-kit kinase, 1 to 10 µM.

Consider `COc1ccc(S(=O)(=O)Nc2ccc(-c3ncnc4[nH]c(C)cc34)c(F)c2)cc1` [P-0363, N-[3-fluoro-4-(6-methyl-7H-pyrrolo[2,3-d]pyrimidin-4-yl)phenyl]-4-methoxy-benzenesulfonamide], for which the IC50 at c-kit mutant D816V and on c-kit kinase was 1 to 10 µM throughout.

`Cc1cc2c(-c3ccc(NS(=O)(=O)c4cccc(Cl)c4F)cc3F)ncnc2[nH]1` [P-0364, 3-chloro-2-fluoro-N-[3-fluoro-4-(6-methyl-7H-pyrrolo[2,3-d]pyrimidin-4-yl)phenyl]benzenesulfonamide]: the IC50 at c-kit mutant D816V and at c-kit kinase was 10 to 200 µM each time.

For the molecule `Cc1cc2c(-c3ccc(NS(=O)(=O)c4ccc(C)c(F)c4)cc3F)ncnc2[nH]1` [P-0365, 3-fluoro-N-[3-fluoro-4-(6-methyl-7H-pyrrolo[2,3-d]pyrimidin-4-yl)phenyl]-4-methyl-benzenesulfonamide], the results for the IC50 on c-kit mutant D816V and at c-kit kinase were 1 to 10 µM and 10 to 200 µM, respectively.

As for `Cc1cc2c(-c3ccc(NS(=O)(=O)c4ccc(OC(F)F)cc4)cc3F)ncnc2[nH]1` [P-0366, 4-(difluoromethoxy)-N-[3-fluoro-4-(6-methyl-7H-pyrrolo[2,3-d]pyrimidin-4-yl)phenyl]benzenesulfonamide], the IC50 on c-kit mutant D816V and on c-kit kinase was 1 to 10 µM throughout.

With `[2H]C([2H])([2H])S(=O)(=O)Nc1ccc(-c2ncnc3[nH]c(-c4ccc(F)cc4)cc23)cc1F` [P-0367, 1,1,1-trideuterio-N-[2-fluoro-4-[6-(4-fluorophenyl)-7H-pyrrolo[2,3-d]pyrimidin-4-yl]phenyl]methanesulfonamide], the IC50 on c-kit mutant D816V lay within 0.0001 to 1 µM; at c-kit kinase, 10 to 200 µM.

Consider `[2H]C([2H])([2H])S(=O)(=O)Nc1ccc(-c2ncnc3[nH]c(-c4ccc(F)cc4)cc23)c(F)c1` [P-0368, 1,1,1-trideuterio-N-[3-fluoro-4-[6-(4-fluorophenyl)-7H-pyrrolo[2,3-d]pyrimidin-4-yl]phenyl]methanesulfonamide], for which the IC50 at c-kit mutant D816V and at c-kit kinase was 0.0001 to 1 µM each time.

As to `O=S(=O)(NCC1CC1)c1ccc(-c2ncnc3[nH]c(-c4ccc(F)cc4)cc23)c(F)c1` [P-0369, N-(cyclopropylmethyl)-3-fluoro-4-[6-(4-fluorophenyl)-7H-pyrrolo[2,3-d]pyrimidin-4-yl]benzenesulfonamide], the IC50 at c-kit mutant D816V lay within 1 to 10 µM; at c-kit kinase, 10 to 200 µM.

Consider `Cc1cc2c(-c3ccc(NS(C)(=O)=O)cc3)ncnc2[nH]1` [P-0379, N-[4-(6-methyl-7H-pyrrolo[2,3-d]pyrimidin-4-yl)phenyl]methanesulfonamide], for which the IC50 fell in the range of 1 to 10 µM at c-kit mutant D816V and 10 to 200 µM on c-kit kinase.

In the case of `CCS(=O)(=O)Nc1ccc(-c2ncnc3[nH]c(-c4ccc(F)cc4)cc23)c(F)c1` [P-0381, N-[3-fluoro-4-[6-(4-fluorophenyl)-7H-pyrrolo[2,3-d]pyrimidin-4-yl]phenyl]ethanesulfonamide], the IC50 at c-kit mutant D816V and on c-kit kinase was 0.0001 to 1 µM throughout.

Consider `CS(=O)(=O)Nc1ccc(-c2cc3c(-c4ccc(NS(C)(=O)=O)cc4F)ncnc3[nH]2)c(F)c1` [P-0382, N-[3-fluoro-4-[4-[2-fluoro-4-(methanesulfonamido)phenyl]-7H-pyrrolo[2,3-d]pyrimidin-6-yl]phenyl]methanesulfonamide], for which the IC50 on c-kit mutant D816V and at c-kit kinase was 0.0001 to 1 µM each time.

With `O=S(=O)(Nc1ccc(-c2cc3c(-c4ccc(NS(=O)(=O)C5CC5)cc4F)ncnc3[nH]2)c(F)c1)C1CC1` [P-0387, N-[4-[4-[4-(cyclopropylsulfonylamino)-2-fluoro-phenyl]-7H-pyrrolo[2,3-d]pyrimidin-6-yl]-3-fluoro-phenyl]cyclopropanesulfonamide], the concentration for half-maximal inhibition (IC50) lay within 0.0001 to 1 µM at c-kit mutant D816V and 1 to 10 µM at c-kit kinase.
